pEC50, pIC50: −log10 of the molar value.

One assay has as its target DYRK1A (Homo sapiens (Human), UniProt Q13627). Kind of assay: DYRK1A activity Tau assay: pSer396 Tau in SH-SY5Y cells by ELISA / western blot. It counts as cell-based. The settings on record: overnight (16-18 h) exposure.
Source text: In another example, in vitro assays for DYRK1A biological activity may be used, e.g. regulation of microtubule-associated protein tau (MAPT/Tau) phosphorylation in neuronal cell line such as the human SH-SY5Y neuroblastoma cell line. Assays for DYRK1a-regulated level of phosphorylation can include monitoring levels of basal pSer396 Tau, which can be measured, for example, by serial dilutions of a candidate inhibitor composition using a ten micromolar top concentration and detected by ELISA or Western Blotting. An exemplary assay for DYRK-1a-regulated phosphorylation uses the SH-SY5Y cells cultured in a 96 well plate format for a period of time sufficient to stabilize microtubules and Tau phosphorylation, usually at least 2 days, then treated with a 1/3 serial dilution of compounds overnight and lysed. The cell lysate is resolved by SDS PAGE, then transferred to nitrocellulose and probed with an antibody specific for pSer396 Tau.
In a further example, the activity of a candidate compound can be measured by ELISA by adding the lysate mentioned above onto total Tau-coated plates and detected with a specific pSer396 antibody.
Molecule “5-(5-(Piperidin-1-ylmethyl)pyridin-3-yl)-N-(2-(pyrrolidin-1-yl)pyridin-4-yl)-1H-indazole-3-carboxamide [Compound 100]” showed a pEC50 of 8.70.

In turn, `CN1CCC(NC(=O)c2n[nH]c3ccc(-c4cccnc4)cc23)CC1` [Compound 1, N-(1-Methylpiperidin-4-yl)-5-(pyridin-3-yl)-1H-indazole-3-carboxamide] had a pEC50 of 7.19.

In the case of `O=C(NC1CCNCC1)c1n[nH]c2ccc(-c3cccnc3)cc12` [Compound 3, N-(Piperidin-4-yl)-5-(pyridin-3-yl)-1H-indazole-3-carboxamide], the pEC50 is 7.55.

Molecule `O=C(NC1CCN(CC2CC2)CC1)c1n[nH]c2ccc(-c3cncc(F)c3)cc12` [Compound 1312, N-(1-(Cyclopropylmethyl)piperidin-4-yl)-5-(5-fluoropyridin-3-yl)-1H-indazole-3-carboxamide] showed a pEC50 of 7.48.

The molecule `O=C(NC1CCN(CC2CCC2)CC1)c1n[nH]c2ccc(-c3cccnc3)cc12` [Compound 1314, N-(1-(Cyclobutylmethyl)piperidin-4-yl)-5-(pyridin-3-yl)-1H-indazole-3-carboxamide] had a pEC50 of 7.96.

`CC(C)(C)CN1CCC(NC(=O)c2n[nH]c3ccc(-c4cncc(F)c4)cc23)CC1` [Compound 1315, 5-(5-Fluoropyridin-3-yl)-N-(1-neopentylpiperidin-4-yl)-1H-indazole-3-carboxamide]: the pEC50 was 6.06.

Consider `CC(C)CCN1CCC(NC(=O)c2n[nH]c3ccc(-c4cccnc4)cc23)CC1` [Compound 1316, N-(1-Isopentylpiperidin-4-yl)-5-(pyridin-3-yl)-1H-indazole-3-carboxamide], for which the negative logarithm of the EC50 (pEC50) is 7.92.

Regarding `NC1CN(c2cncc(-c3ccc4[nH]nc(C(=O)Nc5cccnc5)c4c3)n2)C1` [Compound 1317, 5-(6-(3-Aminoazetidin-1-yl)pyrazin-2-yl)-N-(pyridin-3-yl)-1H-indazole-3-carboxamide], the pEC50 is 9.00.

`CC(C)(F)CN1CCC(NC(=O)c2n[nH]c3ccc(-c4cnccn4)cc23)CC1` [Compound 1319, N-(1-(2-Fluoro-2-methylpropyl)piperidin-4-yl)-5-(pyrazin-2-yl)-1H-indazole-3-carboxamide] showed a negative logarithm of the EC50 (pEC50) of 7.01.

In turn, `CC(C)(F)CN1CCC(NC(=O)c2n[nH]c3ccc(-c4cccnc4F)cc23)CC1` [Compound 1320, N-(1-(2-Fluoro-2-methylpropyl)piperidin-4-yl)-5-(2-fluoropyridin-3-yl)-1H-indazole-3-carboxamide] gave a pEC50 of 7.38.

Turning to `CC(C)(F)CN1CCC(NC(=O)c2n[nH]c3ccc(-c4ccc(F)nc4)cc23)CC1` [Compound 1321, N-(1-(2-Fluoro-2-methylpropyl)piperidin-4-yl)-5-(6-fluoropyridin-3-yl)-1H-indazole-3-carboxamide], the pEC50 is 7.85.

Consider `Cc1ncc(-c2ccc3[nH]nc(C(=O)NC4CCN(CC(C)(C)F)CC4)c3c2)cn1` [Compound 1322, N-(1-(2-Fluoro-2-methylpropyl)piperidin-4-yl)-5-(2-methylpyrimidin-5-yl)-1H-indazole-3-carboxamide], for which the pEC50 was 6.27.

With `O=C(NCC1CC1)c1n[nH]c2ccc(-c3cncc(Cl)c3)cc12` [Compound 1323, 5-(5-Chloropyridin-3-yl)-N-(cyclopropylmethyl)-1H-indazole-3-carboxamide], the negative logarithm of the EC50 (pEC50) was 7.37.

As for `CN(C)Cc1ccc(NC(=O)c2n[nH]c3ccc(-c4cccnc4)cc23)cc1` [Compound 1324, N-(4-((Dimethylamino)methyl)phenyl)-5-(pyridin-3-yl)-1H-indazole-3-carboxamide], the pEC50 was 8.00.

`CN(C)Cc1ccc(NC(=O)c2n[nH]c3ccc(-c4cccc(F)c4F)cc23)cc1` [Compound 1325, 5-(2,3-Difluorophenyl)-N-(4-((dimethylamino)methyl)phenyl)-1H-indazole-3-carboxamide] gave a pEC50 of 7.27.

The molecule `O=C(Nc1ccc(CN2CCCC2)cc1)c1n[nH]c2ccc(-c3cccnc3)cc12` [Compound 1326, 5-(Pyridin-3-yl)-N-(4-(pyrrolidin-1-ylmethyl)phenyl)-1H-indazole-3-carboxamide] had a pEC50 of 8.00.

In turn, `CN1CCN(Cc2ccc(NC(=O)c3n[nH]c4ccc(-c5cccc(F)c5F)cc34)cc2)CC1` [Compound 1332, 5-(2,3-Difluorophenyl)-N-(4-((4-methylpiperazin-1-yl)methyl)phenyl)-1H-indazole-3-carboxamide] showed a pEC50 of 7.85.

`CC(C)CNC(=O)c1n[nH]c2ccc(-c3ccc(F)nc3)cc12` [Compound 1335, 5-(6-Fluoropyridin-3-yl)-N-isobutyl-1H-indazole-3-carboxamide] showed a pEC50 of 7.21.

The molecule `CC(C)CNC(=O)c1n[nH]c2ccc(-c3cccnc3F)cc12` [Compound 1336, 5-(2-Fluoropyridin-3-yl)-N-isobutyl-1H-indazole-3-carboxamide] showed a pEC50 of 7.66.

Molecule `CN1CCC(N(C)C(=O)c2n[nH]c3ccc(-c4cccnc4)cc23)CC1` [Compound 1337, N-Methyl-N-(1-methylpiperidin-4-yl)-5-(pyridin-3-yl)-1H-indazole-3-carboxamide] showed a pEC50 of 5.60.

Regarding `CCN1CCC(NC(=O)c2n[nH]c3ccc(-c4cccc(OC)c4F)cc23)CC1` [Compound 1338, N-(1-Ethylpiperidin-4-yl)-5-(2-fluoro-3-methoxyphenyl)-1H-indazole-3-carboxamide], the negative logarithm of the EC50 (pEC50) was 5.74.

The molecule `COc1cccc(-c2ccc3[nH]nc(C(=O)NC(C)C)c3c2)c1F` [Compound 1339, 5-(2-Fluoro-3-methoxyphenyl)-N-isopropyl-1H-indazole-3-carboxamide] showed a pEC50 of less than 5.00.

Take `O=C(Nc1ccc(CN2CCCC2)cc1)c1n[nH]c2cc(F)c(-c3cccnc3)cc12` [Compound 1345, 6-Fluoro-5-(pyridin-3-yl)-N-(4-(pyrrolidin-1-ylmethyl)phenyl)-1H-indazole-3-carboxamide]: the negative-log EC50 (pEC50) was 7.66.

The next assay relates to Wnt activity (Wnt-responsive SP5 promoter luciferase reporter in SW480 cells). Kind of assay: Wnt activity reporter assay: SW480 cells with SP5 promoter-driven firefly luciferase. It counts as cell-based. The note with it: 24 h after compound addition, read-out: Wnt inhibition. The text has this:
The above synthesized compounds were screened using the assay procedure for Wnt activity described below.
Reporter cell lines were generated by stably transducing cells of cancer cell lines (e.g., colon cancer) with a lentiviral construct that include a Wnt-responsive promoter driving expression of the firefly luciferase gene.
Lentiviral constructs were made in which the SP5 promoter, a promoter having eight TCF/LEF binding sites derived from the SP5 promoter, was linked upstream of the firefly luciferase gene. The lentiviral constructs included a hygromycin resistance gene as a selectable marker. The SP5 promoter construct was used to transduce SW480 cells, a colon cancer cell line having a mutated APC gene that generates a truncated APC protein, leading to de-regulated accumulation of β-catenin.
Cultured SW480 cells bearing a reporter construct were distributed at approximately 10,000 cells per well into 384 well multiwell plates. Compounds were then added to the wells in half-log dilutions using a three micromolar top concentration. A series of control wells for each cell type received only buffer and compound solvent. Twenty-four hours after the addition of compound, reporter activity for luciferases was assayed, for example, by addition of the BrightGlo luminescence reagent (Promega) and the Victor3 plate reader (Perkin Elmer). Readings were normalized to DMSO only treated cells, and normalized activities were then used for the IC50 calculations.
As for “5-(5-(Piperidin-1-ylmethyl)pyridin-3-yl)-N-(2-(pyrrolidin-1-yl)pyridin-4-yl)-1H-indazole-3-carboxamide [Compound 100]”, the pIC50 was 5.59.

Staying with this assay, now noted: Homo sapiens, 24 h after compound addition, read-out: Wnt inhibition.
As for `CN1CCC(NC(=O)c2n[nH]c3ccc(-c4cccnc4)cc23)CC1` [Compound 1, N-(1-Methylpiperidin-4-yl)-5-(pyridin-3-yl)-1H-indazole-3-carboxamide], the pIC50 is 5.89.

`O=C(NC1CCNCC1)c1n[nH]c2ccc(-c3cccnc3)cc12` [Compound 3, N-(Piperidin-4-yl)-5-(pyridin-3-yl)-1H-indazole-3-carboxamide]: the pIC50 was 5.19.

In the case of `CN1CCN(c2ccc(NC(=O)c3n[nH]c4ccc(-c5cncc(NC(=O)c6ccc(F)cc6F)c5)cc34)cn2)CC1` [Compound 47, 5-(5-(2,4-Difluorobenzamido)pyridin-3-yl)-N-(6-(4-methylpiperazin-1-yl)pyridin-3-yl)-1H-indazole-3-carboxamide], the pIC50 was 6.48.

In the case of `CN1CCN(c2ccc(NC(=O)c3n[nH]c4ccc(-c5cncc(NC(=O)c6c(F)cccc6F)c5)cc34)cn2)CC1` [Compound 49, 5-(5-(2,6-Difluorobenzamido)pyridin-3-yl)-N-(6-(4-methylpiperazin-1-yl)pyridin-3-yl)-1H-indazole-3-carboxamide], the pIC50 was 6.65.

As for `O=C(Nc1cccnc1)c1n[nH]c2ccc(-c3cncc(CN4CC(CO)(CO)C4)c3)cc12` [Compound 50, 5-(5-((3,3-Bis(hydroxymethyl)azetidin-1-yl)methyl)pyridin-3-yl)-N-(pyridin-3-yl)-1H-indazole-3-carboxamide], the pIC50 is 5.00.

Consider `[2H]C([2H])([2H])Oc1ccc(NC(=O)c2n[nH]c3ccc(-c4cncc(CN5CCCCC5)c4)cc23)cn1` [Compound 68, N-(6-(Methoxy-d3)pyridin-3-yl)-5-(5-(piperidin-1-ylmethyl)pyridin-3-yl)-1H-indazole-3-carboxamide], for which the pIC50 is 7.24.

For the molecule `[2H]C([2H])([2H])Oc1ccc(NC(=O)c2n[nH]c3ccc(-c4cncc(C([2H])([2H])N5CCCCC5)c4)cc23)cn1` [Compound 69, N-(6-(methoxy-d3)pyridin-3-yl)-5-(5-(piperidin-1-ylmethyl-d2)pyridin-3-yl)-1H-indazole-3-carboxamide], the pIC50 is 7.35.

With `O=C(Nc1ccc(OC(CO)CO)nc1)c1n[nH]c2ccc(-c3cncc(CN4CCCCC4)c3)cc12` [Compound 70, N-(6-((1,3-Dihydroxypropan-2-yl)oxy)pyridin-3-yl)-5-(5-(piperidin-1-ylmethyl)pyridin-3-yl)-1H-indazole-3-carboxamide], the pIC50 was 6.30.

For `O=C(Nc1ccc(N2CC(CO)(CO)C2)nc1)c1n[nH]c2ccc(-c3cncc(CN4CCCCC4)c3)cc12` [Compound 72, N-(6-(3,3-Bis(hydroxymethyl)azetidin-1-yl)pyridin-3-yl)-5-(5-(piperidin-1-ylmethyl)pyridin-3-yl)-1H-indazole-3-carboxamide], the pIC50 was 5.82.

Turning to `O=C(Nc1cccnc1)c1n[nH]c2ccc(-c3cncc(CN4CCS(=O)(=O)CC4)c3)cc12` [Compound 86, 5-(5-((1,1-Dioxidothiomorpholino)methyl)pyridin-3-yl)-N-(pyridin-3-yl)-1H-indazole-3-carboxamide], the pIC50 was 6.68.

In the case of `O=C(Nc1cnccn1)c1n[nH]c2ccc(-c3cncc(CN4CCCCCC4)c3)cc12` [Compound 88, 5-(5-(Azepan-1-ylmethyl)pyridin-3-yl)-N-(pyrazin-2-yl)-1H-indazole-3-carboxamide], the pIC50 was 6.37.

On to `CC(C)OCCCNC(=O)c1n[nH]c2ccc(-c3cncc(F)c3)cc12` [Compound 1263, 5-(5-Fluoropyridin-3-yl)-N-(3-isopropoxypropyl)-1H-indazole-3-carboxamide], for which the pIC50 is 5.85.

The values are drawn from patent US10669240B2, “5-substituted indazole-3-carboxamides and preparation and use thereof” (Samumed, LLC, priority 2014, dated 2020).
